Experimental data as given in patent US5891847A, “Treatment of degenerative eye disorders” (Ramot University Authority for Applied Research and …, priority 1992, dated 1999).

Test system: RCS rats
Test: Retinal degeneration in RCS rats: histological and morphometric analysis of the retina after daily intramuscular injections
Format: in vivo, rat
Source text: Royal College Surgeons (RCS) rats were used. In RCS rats, a progressive loss of photoreceptor cells, caused by a recessively autosomal mutation of the RPE (La Vail, 1981), leads to severe visual impairment. Due to the failure of pigment epithelium phagocytosis, rod outer segment material accumulates between the retina and the RPE and results in retinal degeneration. […] The age of the animals in the experiment will hereinafter be referred to in relation with the postnatal day which will be indicated as pn, wherein n=the postnatal day. This disorder is similar to age-related macular degeneration in humans in that a metabolic insufficiency of the RPE cells results in a secondary progressive photoreceptor loss and vision impairment.
Enucleated eyes removed from the orbit eyes were fixated for plastic embedding in epoxy resin (Faktorovitch 1990; La Vail, 1981). The eyes were sectioned parallel to the vertical meridian.
The histological sections which were analyzed originated from the posterior part of the eye, from ora serata to ora serata including the optic nerve. Each histological preparation was analyzed by computerized image analysis. Twelve measurements (six from each side of the optic nerve) were taken at pre-determined points. At each point the number of rows of photoreceptors in the outer nuclear layer (ONL), as well as the thickness of inner plexiform layer (IPL) were determined.
The RCS rats of the experiment were divided into three groups of rats, each group including eight rats (8 eyes). The three groups were as follows:
1. RCS rats at the age of p23 receiving no treatment.
2. RCS rats at the age of p38 receiving no treatment.
3. RCS rats at the age of p23 receiving daily intramuscular injections to the hind leg containing α-MSH analog which was prepared as described above. Each rat received 0.01 micrograms of the α-MSH analog in 0.2 ml PBS in each injection.
The rats were sacrificed at the age of p38, the eyes were enucleated and then subjected to fixation and histological sections were prepared, as described above. The histological preparations of the eyes were examined morphometrically as described above and, in addition, the retinas were also examined by light microscopy.
The effect of α-MSH analog treatment on the retinas of the rats was quantitated by measuring the two following parameters at 11 or 14 points in the retina at various distances from the optic nerve:
An experiment similar to the one described above was also carried out in which the α-MSH analog treatment of Group 3 rats was replaced by α-MSH treatment. The result of this experiment, not shown were similar to the results of the above described experiment.

[1] = RCS rats, daily i.m. injections, compared to untreated rats

Nle^4 D-Phe^7 α-MSH [α-MSH analog] was tested, and the “number of layers of photoreceptors in the ONL (histological preparation, FIG. 3)” value (RCS rat at p38, daily intramuscular injections p23 to p38, 0.01 micrograms per injection, untreated 3-4 layers) was 7-8 layers, the “mean row number in treated higher than in non-treated” value (RCS rats at p38, ONL photoreceptor rows, treated vs non-treated) was 60% and the “mean number of photoreceptor rows in ONL (FIG. 4)” value (RCS rats at p38, daily i.m. injections, 9 out of 11 points of measurement, non-treated 3.5±0.4, p<0.05) was 5.6±0.6 rows. The “thickness of the inner plexiform layer (IPL) (FIG. 5)” value (RCS rats at p38, central sector of the retina, 1.3 mm of each side of the optic nerve, untreated 23 microns, p<0.05) was 50 microns, the “effect on photoreceptor degeneration (in words)” value [1] was “rescued from degeneration” and the “effect on thickness of IPL / adjacent retinal layers (in words)” value [1] was “significantly greater”. For the same substance, the “effective dose per rat (daily intramuscular injection)” value (RCS rats, dose needed to obtain the same effect on photoreceptor degeneration and retinal layer thickness) was 0.01-0.5 microgram and the “number of rows of photoreceptors in the ONL, fold higher than non-treated” value (points 0.8 mm and 1.7 mm away from the optic nerve, Group 3 vs Group 2, p<0.001) was 2 ×.
